# Test results as given in patent publication US20260022118A1, “HETEROCYCLIC COMPOUNDS AS NRAS INHIBITORS” (Board of Regents, The University of Texas System, priority 2023, published 2026).
# Tested on: THP-1 cells expressing G12D (NRAS G12D)
# Test: Inhibition of NRAS G12D-mediated phosphorylation of ERK (AlphaLISA p-ERK1/2) in THP-1 cells
# Type: cell-based
# Conditions: 2 hours incubation, HBSS with 0% or 10% FBS, p-ERK1/2 (Thr202/Tyr204) AlphaLISA, read-out: pERK THP-1 IC50
# Protocol: Inhibition of NRAS G12D-Mediated Phosphorylation of ERK by Exemplary Compounds of Formulas I, II, and III.
# This Example illustrates that exemplary compounds and salts thereof described herein inhibit the phosphorylation of ERK downstream of NRAS G12D.
# THP-1 cells (ATCC TIB-202) expressing G12D were maintained in RPMI-1640 medium supplemented with 10% fetal bovine serum (FBS), 0.05 mM 2-mercaptoethanol, and penicillin/streptomycin. Cells (20,000/well) were seeded onto a 384 well plate in 20 μL of HBSS supplemented with 0% or 10% FBS. Cells were incubated in the absence or presence of various concentrations of test compound (final 1% DMSO) for 2 hours. p-ERK expression was assessed using the AlphaLISA SureFire Ultra p-ERK1/2 (Thr202/Tyr204) (PerkinElmer®, ALSU-PERK-A10K) following manufacturer recommendation. Plates were read on a PerkinElmer® Envision Multimode plate reader. Dose-response curves were analyzed using IC50 regression curve fitting (GeneData Screener). Curves were plotted as a percent control and normalized by high controls without inhibitor (100%), and low controls (0%) containing 1 μM of trametinib, a potent MEK inhibitor.
row,IC50,SMILES
1,116 nM,"C#Cc1c(F)ccc2cc(O)cc(-c3ncc4c([C@H]5[C@@H]6CN[C@@H](C(=O)OC)[C@@H]65)nn(C)c4c3F)c12 (racemic) [Example 47, methyl rac-(2R,6S)-6-[6-(8-ethynyl-7-fluoro-3-hydroxy-1-naphthyl)-7-fluoro-1-methyl-pyrazolo[4,3-c]pyridin-3-yl]-3-azabicyclo[3.1.0]hexane-2-carboxylate]"
2,6470 nM,"C#Cc1c(F)ccc2cc(O)cc(-c3ncc4c([C@H]5[C@@H]6CN[C@@H](C(=O)OC)[C@@H]65)nn(C)c4c3F)c12 (racemic) [Example 48, methyl rac-(2R,6S)-6-[6-(8-ethynyl-7-fluoro-3-hydroxy-1-naphthyl)-7-fluoro-1-methyl-pyrazolo[4,3-c]pyridin-3-yl]-3-azabicyclo[3.1.0]hexane-2-carboxylate]"

# Same assay, conditions: Homo sapiens, THP-1, 2 h, 2 hours incubation, HBSS with 0% or 10% FBS, p-ERK1/2 (Thr202/Tyr204) AlphaLISA, read-out: pERK THP-1 IC50
row,SMILES,IC50
1,"C#Cc1c(F)ccc2cc(O)cc(-c3nc(N(C)C)c4c(N5C[C@H]6CC[C@@H]5CN6)nn(C5CC5)c4c3F)c12 (stereo in doubt) [Example 92, 4-(3-((1R,4R)-2,5-diazabicyclo[2.2.2]octan-2-yl)-1-cyclopropyl-4-(dimethylamino)-7-fluoro-1H-pyrazolo[4,3-c]pyridin-6-yl)-5-ethynyl-6-fluoronaphthalen-2-ol]",> 10000 nM
2,"C#Cc1c(F)ccc2cc(O)cc(-c3ncc4c(N5C6CNCC5C6)nn(C)c4c3F)c12 [Example 35, 4-[3-(3,6-diazabicyclo[3.1.1]heptan-6-yl)-7-fluoro-1-methyl-pyrazolo[4,3-c]pyridin-6-yl]-5-ethynyl-6-fluoro-naphthalen-2-ol]",4660 nM
3,"C#Cc1c(F)ccc2cc(O)cc(-c3nc(CCC#N)c4c([C@H]5[C@@H]6CNC[C@@H]65)nn(C5CC5)c4c3F)c12 [Example 50, 3-[3-(3-azabicyclo[3.1.0]hexan-6-yl)-1-cyclopropyl-6-(8-ethynyl-7-fluoro-3-hydroxy-1-naphthyl)-7-fluoro-pyrazolo[4,3-c]pyridin-4-yl]propanenitrile]",490 nM
4,"C#Cc1c(F)ccc2cc(O)cc(-c3nc(Cc4ccccc4)c4c([C@H]5[C@@H]6CNC[C@@H]65)nn(C5CC5)c4c3F)c12 [Example 52, 4-[3-(3-azabicyclo[3.1.0]hexan-6-yl)-4-benzyl-1-cyclopropyl-7-fluoro-pyrazolo[4,3-c]pyridin-6-yl]-5-ethynyl-6-fluoro-naphthalen-2-ol]",3890 nM
5,"C#Cc1c(F)ccc2cc(O)cc(-c3nc(C(=C)C)c4c([C@H]5[C@@H]6CNC[C@@H]65)nn(C5CC5)c4c3F)c12 [Example 53, 4-(3-((1R,5S,6r)-3-azabicyclo[3.1.0]hexan-6-yl)-1-cyclopropyl-7-fluoro-4-(prop-1-en-2-yl)-1H-pyrazolo[4,3-c]pyridin-6-yl)-5-ethynyl-6-fluoronaphthalen-2-ol]",5.81 nM
6,"C#Cc1c(F)ccc2cc(O)cc(-c3nc(C4CCC4)c4c([C@H]5[C@@H]6CNC[C@@H]65)nn(C5CC5)c4c3F)c12 [Example 54, 4-[3-(3-azabicyclo[3.1.0]hexan-6-yl)-4-cyclobutyl-1-cyclopropyl-7-fluoro-pyrazolo[4,3-c]pyridin-6-yl]-5-ethynyl-6-fluoro-naphthalen-2-ol]",16.4 nM
7,"C#Cc1c(F)ccc2cc(O)cc(-c3nc(C(C)(C)O)c4c([C@H]5[C@@H]6CNC[C@@H]65)nn(C5CC5)c4c3F)c12 [Example 56, 4-[3-(3-azabicyclo[3.1.0]hexan-6-yl)-1-cyclopropyl-7-fluoro-4-(1-hydroxy-1-methyl-ethyl)pyrazolo[4,3-c]pyridin-6-yl]-5-ethynyl-6-fluoro-naphthalen-2-ol]",152 nM
8,"C#Cc1c(F)ccc2cc(O)cc(-c3nc(OC4COC4)c4c([C@H]5[C@@H]6CNC[C@@H]65)nn(C5CC5)c4c3F)c12 [Example 71, 4-(3-((1R,5S,6r)-3-azabicyclo[3.1.0]hexan-6-yl)-1-cyclopropyl-7-fluoro-4-(oxetan-3-yloxy)-1H-pyrazolo[4,3-c]pyridin-6-yl)-5-ethynyl-6-fluoronaphthalen-2-ol]",> 10000 nM
9,"C#Cc1c(F)ccc2cc(O)cc(-c3nc(N4CCC4)c4c([C@H]5[C@@H]6CNC[C@@H]65)nn(C5CC5)c4c3F)c12 [Example 79, 4-(4-(azetidin-1-yl)-3-((1R,5S,6r)-3-azabicyclo[3.1.0]hexan-6-yl)-1-cyclopropyl-7-fluoro-1H-pyrazolo[4,3-c]pyridin-6-yl)-5-ethynyl-6-fluoronaphthalen-2-ol]",603 nM
10,"C#Cc1c(F)ccc2cc(O)cc(-c3nc(N(CC)CC)c4c([C@H]5[C@@H]6CNC[C@@H]65)nn(C5CC5)c4c3F)c12 [Example 80, 4-(3-((1R,5S,6r)-3-azabicyclo[3.1.0]hexan-6-yl)-1-cyclopropyl-4-(diethylamino)-7-fluoro-1H-pyrazolo[4,3-c]pyridin-6-yl)-5-ethynyl-6-fluoronaphthalen-2-ol]",126 nM
11,"C#Cc1c(F)ccc2cc(O)cc(-c3nc(N(C)CC)c4c([C@H]5[C@@H]6CNC[C@@H]65)nn(C5CC5)c4c3F)c12 [Example 81, 4-(3-((1R,5S,6r)-3-azabicyclo[3.1.0]hexan-6-yl)-1-cyclopropyl-4-(ethyl(methyl)amino)-7-fluoro-1H-pyrazolo[4,3-c]pyridin-6-yl)-5-ethynyl-6-fluoronaphthalen-2-ol]",74.6 nM
12,"C#Cc1c(F)ccc2cc(O)cc(-c3nc(C(=C)C)c4c(N5C[C@@H]6CC[C@H]5CN6)nn(C5CC5)c4c3F)c12 [Example 89, 4-(3-((1S,4S)-2,5-diazabicyclo[2.2.2]octan-2-yl)-1-cyclopropyl-7-fluoro-4-(prop-1-en-2-yl)-1H-pyrazolo[4,3-c]pyridin-6-yl)-5-ethynyl-6-fluoronaphthalen-2-ol]",3730 nM

# Results, then the compound that gave them:
row,IC50,SMILES
1,> 50000 nM,"C#Cc1c(F)ccc2cc(O)cc(-c3ncc4c(N5C[C@@H](C)N[C@@H](C)C5)nn(C)c4c3F)c12 [Example 32, 4-[3-[(3R,5S)-3,5-dimethylpiperazin-1-yl]-7-fluoro-1-methyl-pyrazolo[4,3-c]pyridin-6-yl]-5-ethynyl-6-fluoro-naphthalen-2-ol]"
2,6670 nM,"C#Cc1c(F)ccc2cc(O)cc(-c3ncc4c(N5C[C@@H]6CNC[C@@H]65)nn(C5CC5)c4c3F)c12 [Example 37, 4-[1-cyclopropyl-3-[(1S,5R)-3,6-diazabicyclo[3.2.0]heptan-6-yl]-7-fluoro-pyrazolo[4,3-c]pyridin-6-yl]-5-ethynyl-6-fluoro-naphthalen-2-ol]"
3,> 10000 nM,"C#Cc1c(F)ccc2cc(O)cc(-c3ncc4c(C5C(=O)C6CCC5CN6)nn(C)c4c3F)c12 (centres unmarked) [Example 41, 5-[6-(8-ethynyl-7-fluoro-3-hydroxy-1-naphthyl)-7-fluoro-1-methyl-pyrazolo[4,3-c]pyridin-3-yl]-2-azabicyclo[2.2.2]octan-6-one]"
4,> 10000 nM,"C#Cc1c(F)ccc2cc(O)cc(-c3ncc4c(C5CC6CCC5CN6)nn(C)c4c3F)c12 (centres unmarked) [Example 43, 4-[3-(2-azabicyclo[2.2.2]octan-5-yl)-7-fluoro-1-methyl-pyrazolo[4,3-c]pyridin-6-yl]-5-ethynyl-6-fluoro-naphthalen-2-ol]"
5,250 nM,"C#Cc1c(F)ccc2cc(O)cc(-c3nc(C)c4c([C@H]5[C@@H]6CNC[C@@H]65)nn(C5CC5)c4c3F)c12 [Example 51, 4-[3-(3-azabicyclo[3.1.0]hexan-6-yl)-1-cyclopropyl-7-fluoro-4-methyl-pyrazolo[4,3-c]pyridin-6-yl]-5-ethynyl-6-fluoro-naphthalen-2-ol]"
6,499 nM,"C#Cc1c(F)ccc2cc(O)cc(-c3nc(C(F)(F)F)c4c([C@H]5[C@@H]6CNC[C@@H]65)nn(C5CC5)c4c3F)c12 [Example 55, 4-[3-(3-azabicyclo[3.1.0]hexan-6-yl)-1-cyclopropyl-7-fluoro-4-(trifluoromethyl)pyrazolo[4,3-c]pyridin-6-yl]-5-ethynyl-6-fluoro-naphthalen-2-ol]"
7,89.2 nM,"C#Cc1c(F)ccc2cc(O)cc(-c3nc(N(C)C)c4c([C@H]5[C@@H]6CNC[C@@H]65)nn(C5CC5)c4c3F)c12 [Example 78, 4-(3-((1R,5S,6r)-3-azabicyclo[3.1.0]hexan-6-yl)-1-cyclopropyl-4-(dimethylamino)-7-fluoro-1H-pyrazolo[4,3-c]pyridin-6-yl)-5-ethynyl-6-fluoronaphthalen-2-ol]"
8,458 nM,"C#Cc1c(F)ccc2cc(O)cc(-c3nc(C(C)=O)c4c([C@H]5[C@@H]6CNC[C@@H]65)nn(C5CC5)c4c3F)c12 [Example 84, 1-(3-((1R,5S,6r)-3-azabicyclo[3.1.0]hexan-6-yl)-1-cyclopropyl-6-(8-ethynyl-7-fluoro-3-hydroxynaphthalen-1-yl)-7-fluoro-1H-pyrazolo[4,3-c]pyridin-4-yl)ethan-1-one]"
9,112 nM,"C#Cc1c(F)ccc2cc(O)cc(-c3nc(C(C)O)c4c([C@H]5[C@@H]6CNC[C@@H]65)nn(C5CC5)c4c3F)c12 (stereo partly drawn) [Example 87, 4-(3-((1R,5S,6r)-3-azabicyclo[3.1.0]hexan-6-yl)-1-cyclopropyl-7-fluoro-4-(1-hydroxyethyl)-1H-pyrazolo[4,3-c]pyridin-6-yl)-5-ethynyl-6-fluoronaphthalen-2-ol]"
